Like-named read-outs stand apart in the source and are kept apart here.
Key:
Type in all cases: binding
[1] = target: T1, BTK (Homo sapiens, UniProt Q06187); settings: for remaining binding at 10 µM: read-out: Percent control
T1 construct: purchased DiscoveRx KINOMEscan

[2] = target: T2, EPHA3 (Homo sapiens, UniProt P29320); settings: for remaining binding at 10 µM: read-out: Percent control
T2 construct: purchased DiscoveRx KINOMEscan
T2 sequence (P29320 21-983): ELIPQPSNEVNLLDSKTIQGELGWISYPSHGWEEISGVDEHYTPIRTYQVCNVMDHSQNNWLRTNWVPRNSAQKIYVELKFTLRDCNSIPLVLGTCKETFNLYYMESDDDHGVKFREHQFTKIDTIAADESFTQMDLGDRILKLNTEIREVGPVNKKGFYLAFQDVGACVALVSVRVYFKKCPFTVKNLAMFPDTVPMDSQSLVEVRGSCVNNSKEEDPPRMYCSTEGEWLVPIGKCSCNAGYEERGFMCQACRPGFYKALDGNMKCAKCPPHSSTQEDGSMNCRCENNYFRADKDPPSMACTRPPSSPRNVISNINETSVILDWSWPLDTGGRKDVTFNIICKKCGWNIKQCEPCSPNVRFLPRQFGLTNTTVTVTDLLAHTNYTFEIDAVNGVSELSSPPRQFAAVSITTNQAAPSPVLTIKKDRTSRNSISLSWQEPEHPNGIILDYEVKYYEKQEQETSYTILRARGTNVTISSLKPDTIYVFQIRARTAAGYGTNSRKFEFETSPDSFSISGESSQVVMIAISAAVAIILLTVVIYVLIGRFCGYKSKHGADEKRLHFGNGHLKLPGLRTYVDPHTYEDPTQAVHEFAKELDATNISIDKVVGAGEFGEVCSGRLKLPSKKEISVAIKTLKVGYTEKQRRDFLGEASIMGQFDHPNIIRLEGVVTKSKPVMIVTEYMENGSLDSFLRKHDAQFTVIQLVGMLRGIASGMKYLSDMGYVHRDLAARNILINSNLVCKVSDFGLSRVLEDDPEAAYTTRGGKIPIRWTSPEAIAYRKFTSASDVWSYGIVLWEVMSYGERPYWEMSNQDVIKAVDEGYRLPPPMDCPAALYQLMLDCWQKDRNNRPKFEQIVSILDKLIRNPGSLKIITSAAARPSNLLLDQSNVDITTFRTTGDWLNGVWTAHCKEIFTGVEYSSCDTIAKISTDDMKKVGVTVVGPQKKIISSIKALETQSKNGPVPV

[3] = target: T3, FGR (Homo sapiens, UniProt P09769); settings: for remaining binding at 10 µM: read-out: Percent control; for Percent control: 10 μM
T3 construct: purchased DiscoveRx KINOMEscan

[4] = target: T4, MUSK (Homo sapiens, UniProt O15146); settings: for remaining binding at 10 µM: read-out: Percent control
T4 construct: purchased DiscoveRx KINOMEscan
T4 sequence (O15146 24-869): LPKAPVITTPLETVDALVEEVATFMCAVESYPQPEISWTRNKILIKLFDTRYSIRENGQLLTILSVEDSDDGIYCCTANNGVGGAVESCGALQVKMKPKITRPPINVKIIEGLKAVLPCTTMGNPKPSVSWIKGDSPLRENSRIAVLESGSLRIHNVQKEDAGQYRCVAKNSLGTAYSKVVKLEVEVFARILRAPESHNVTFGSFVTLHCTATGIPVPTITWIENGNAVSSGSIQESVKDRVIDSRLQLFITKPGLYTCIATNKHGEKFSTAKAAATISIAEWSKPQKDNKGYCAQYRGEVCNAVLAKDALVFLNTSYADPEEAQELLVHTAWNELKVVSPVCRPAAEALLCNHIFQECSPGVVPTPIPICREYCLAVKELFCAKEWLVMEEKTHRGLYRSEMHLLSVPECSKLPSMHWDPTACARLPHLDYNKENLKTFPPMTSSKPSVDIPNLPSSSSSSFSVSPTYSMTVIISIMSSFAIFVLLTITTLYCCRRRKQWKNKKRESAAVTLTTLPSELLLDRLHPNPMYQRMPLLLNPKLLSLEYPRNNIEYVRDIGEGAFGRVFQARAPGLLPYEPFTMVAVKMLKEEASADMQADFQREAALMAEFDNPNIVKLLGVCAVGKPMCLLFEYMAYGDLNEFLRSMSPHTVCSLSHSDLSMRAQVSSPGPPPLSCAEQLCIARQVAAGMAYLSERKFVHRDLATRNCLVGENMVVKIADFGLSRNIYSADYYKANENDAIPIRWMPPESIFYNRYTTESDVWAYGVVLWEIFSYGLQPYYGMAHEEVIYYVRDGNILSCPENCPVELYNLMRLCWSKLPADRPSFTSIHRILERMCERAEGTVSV

[5] = target: T5, TEC (Homo sapiens, UniProt P42680); settings: for remaining binding at 10 µM: read-out: Percent control
T5 construct: purchased DiscoveRx (KINOMEscan service)
T5 sequence (P42680 1-631): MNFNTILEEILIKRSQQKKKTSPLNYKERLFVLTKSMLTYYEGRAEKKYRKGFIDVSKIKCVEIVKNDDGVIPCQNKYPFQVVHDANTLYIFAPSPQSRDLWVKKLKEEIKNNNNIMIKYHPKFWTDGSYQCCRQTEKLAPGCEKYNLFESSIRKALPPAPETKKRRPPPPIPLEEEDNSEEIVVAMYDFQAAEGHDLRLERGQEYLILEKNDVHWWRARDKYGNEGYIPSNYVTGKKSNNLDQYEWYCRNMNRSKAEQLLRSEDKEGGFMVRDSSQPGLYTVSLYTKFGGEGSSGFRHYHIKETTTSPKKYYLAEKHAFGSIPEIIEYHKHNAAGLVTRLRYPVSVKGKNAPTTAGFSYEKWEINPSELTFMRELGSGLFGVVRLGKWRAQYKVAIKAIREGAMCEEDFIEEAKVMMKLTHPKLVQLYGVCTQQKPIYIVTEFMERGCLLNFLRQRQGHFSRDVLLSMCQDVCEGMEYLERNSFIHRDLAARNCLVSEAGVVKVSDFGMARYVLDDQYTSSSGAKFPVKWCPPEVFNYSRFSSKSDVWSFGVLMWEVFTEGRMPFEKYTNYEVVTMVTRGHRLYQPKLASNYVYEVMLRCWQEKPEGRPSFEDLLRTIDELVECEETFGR

T3 sequence (P09769 whole entry): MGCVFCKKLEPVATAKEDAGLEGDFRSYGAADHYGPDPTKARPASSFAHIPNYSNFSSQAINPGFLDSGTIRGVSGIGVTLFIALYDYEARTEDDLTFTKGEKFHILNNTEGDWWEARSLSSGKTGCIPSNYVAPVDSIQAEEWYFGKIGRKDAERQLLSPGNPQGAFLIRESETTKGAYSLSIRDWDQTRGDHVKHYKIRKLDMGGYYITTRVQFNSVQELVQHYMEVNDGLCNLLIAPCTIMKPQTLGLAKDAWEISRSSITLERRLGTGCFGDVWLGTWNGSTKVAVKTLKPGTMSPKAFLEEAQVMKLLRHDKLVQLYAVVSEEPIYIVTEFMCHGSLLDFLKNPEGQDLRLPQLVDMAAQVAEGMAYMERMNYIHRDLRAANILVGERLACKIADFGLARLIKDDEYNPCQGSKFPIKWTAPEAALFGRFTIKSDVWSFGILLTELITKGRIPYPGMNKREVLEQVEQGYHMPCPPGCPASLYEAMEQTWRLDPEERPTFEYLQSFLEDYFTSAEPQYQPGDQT
T1 sequence (Q06187 whole entry): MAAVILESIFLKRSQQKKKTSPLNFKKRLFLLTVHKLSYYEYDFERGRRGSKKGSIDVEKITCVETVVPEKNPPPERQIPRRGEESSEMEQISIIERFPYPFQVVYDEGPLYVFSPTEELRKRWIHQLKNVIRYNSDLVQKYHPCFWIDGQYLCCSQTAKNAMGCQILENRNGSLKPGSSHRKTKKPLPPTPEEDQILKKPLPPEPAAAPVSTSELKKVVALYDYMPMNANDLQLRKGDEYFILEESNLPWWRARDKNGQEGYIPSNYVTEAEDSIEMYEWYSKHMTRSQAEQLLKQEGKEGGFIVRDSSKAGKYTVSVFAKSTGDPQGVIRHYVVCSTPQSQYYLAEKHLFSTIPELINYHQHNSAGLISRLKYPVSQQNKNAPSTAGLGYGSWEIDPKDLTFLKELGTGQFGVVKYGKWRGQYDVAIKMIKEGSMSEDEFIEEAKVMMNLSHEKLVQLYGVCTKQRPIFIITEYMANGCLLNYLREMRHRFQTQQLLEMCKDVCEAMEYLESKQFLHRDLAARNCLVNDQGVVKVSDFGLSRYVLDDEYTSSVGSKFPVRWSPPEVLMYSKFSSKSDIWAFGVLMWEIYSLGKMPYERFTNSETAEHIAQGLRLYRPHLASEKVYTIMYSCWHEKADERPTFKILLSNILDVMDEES

Row | SMILES | remaining binding at 10 µM [1] | remaining binding at 10 µM [2] | remaining binding at 10 µM [3] | remaining binding at 10 µM [4] | remaining binding at 10 µM [5] | Percent control ([1]; BTK, 10 μM) | Percent control ([2]; EPHA3, 10 μM) | Percent control [3] | Percent control ([4]; MUSK, 10 μM) | Percent control ([5]; TEC, 10 μM) | remaining binding at 10 µM ([1]; BTK, 10 μM) | remaining binding at 10 µM ([2]; EPHA3, 10 μM) | remaining binding at 10 µM ([4]; MUSK, 10 μM) | remaining binding at 10 µM ([5]; TEC, 10 μM)
1 | C#Cc1cccc(Nc2ncnc3cc(OCCOC)c(OCCOC)cc23)c1 [Erlotinib] | 100% | 19.4% | 9.9% | 100% | 100% |  |  |  |  |  |  |  |  | 
2 | Cc1ccc(NC(=O)c2ccc(CN3CCN(C)CC3)cc2)cc1Nc1nccc(-c2cccnc2)[n+]1[Pt-2]1([Cl])[NH2+]C2CCCCC2[NH2+]1 (stereo not drawn) [1b, oxaliplatin-imatinib] |  |  |  |  |  | 100% | 64% | 80% | 100% | 100% |  |  |  | 
3 | Cc1ccc(NC(=O)c2ccc(CN3CCN(C)CC3)cc2)cc1Nc1nccc(-c2cccnc2)n1 [Imatinib, reference compound] |  |  |  |  |  |  | 100% | 19.4% | 100% | 100% | 100% |  |  | 
4 | COc1cc2c(Nc3ccc(Br)cc3F)ncnc2cc1OCC1CCN(C)CC1 [Vandetanib, reference compound] |  |  | 2.6% |  |  |  |  |  |  |  | 14.5% | 16.7% | 100% | 100%
5 | COc1cc2c(Nc3ccc(Br)cc3F)[n+]([Pt-2]3([Cl])[NH2+]C4CCCCC4[NH2+]3)cnc2cc1OCC1CCN(C)CC1 (stereo not drawn) [3b, oxaliplatin-vandetanib] |  |  |  |  |  | 37% | 30% | 33% | 95% | 100% |  |  |  | 
6 | C#Cc1cccc(Nc2c3cc(OCCOC)c(OCCOC)cc3nc[n+]2[Pt@SP2-2]([NH3+])([NH3+])[Cl])c1 [2a, cisplatin-erlotinib] |  |  |  |  |  | 87% | 60% | 81% | 97% | 72% |  |  |  | 
